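Grown in 96-well plates, cells were treated for 48 hours with each compound at five concentrations. Insufficient inhibition: endpoint recorded as highest concentration tested. Definition used: TGI = concentration required for complete inhibition of growth.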
Key:
Assay in all cases: NCI anticancer screen, dose series, 48 h
SR leukemia = test system: SR leukemia
UACC-62 melanoma = test system: UACC-62 melanoma
T-47D breast = test system: T-47D breast
EKVX NSCLC = test system: EKVX NSCLC
HT29 colon = test system: HT29 colon
SF-268 CNS = test system: SF-268 CNS
CCRF-CEM leukemia = test system: CCRF-CEM leukemia
HS 578T breast = test system: HS 578T breast
A549 NSCLC = test system: A549 NSCLC
SNB-75 CNS = test system: SNB-75 CNS
ACHN renal = test system: ACHN renal
M14 melanoma = test system: M14 melanoma
HCT-116 colon = test system: HCT-116 colon
NCI-H460 lung = test system: NCI-H460 lung
SW-620 colon = test system: SW-620 colon
UACC-257 melanoma = test system: UACC-257 melanoma
OVCAR-3 ovarian = test system: OVCAR-3 ovarian
HOP-92 NSCLC = test system: HOP-92 NSCLC
NCI-H226 lung = test system: NCI-H226 lung
OVCAR-4 ovarian = test system: OVCAR-4 ovarian
K-562 leukemia = test system: K-562 leukemia
CAKI-1 renal = test system: CAKI-1 renal
NCI/ADR-RES ovarian = test system: NCI/ADR-RES ovarian
SK-MEL-5 melanoma = test system: SK-MEL-5 melanoma
HL-60(TB) leukemia = test system: HL-60(TB) leukemia
HCC-2998 colon = test system: HCC-2998 colon
COLO 205 colon = test system: COLO 205 colon
MCF7 breast = test system: MCF7 breast
OVCAR-8 ovarian = test system: OVCAR-8 ovarian
MDA-N = test system: MDA-N
TK-10 renal = test system: TK-10 renal
BT-549 breast = test system: BT-549 breast
SN12C renal = test system: SN12C renal
U251 CNS = test system: U251 CNS
LOX IMVI melanoma = test system: LOX IMVI melanoma
NCI-H23 lung = test system: NCI-H23 lung
DU-145 prostate = test system: DU-145 prostate
MDA-MB-435 = test system: MDA-MB-435
SK-MEL-2 melanoma = test system: SK-MEL-2 melanoma
OVCAR-5 ovarian = test system: OVCAR-5 ovarian
IGROV1 ovarian = test system: IGROV1 ovarian
NCI-H522 lung = test system: NCI-H522 lung
SK-MEL-28 melanoma = test system: SK-MEL-28 melanoma
HOP-62 NSCLC = test system: HOP-62 NSCLC
PC-3 prostate = test system: PC-3 prostate
SNB-19 CNS = test system: SNB-19 CNS
RPMI-8226 leukemia = test system: RPMI-8226 leukemia
SF-539 CNS = test system: SF-539 CNS
RXF 393 renal = test system: RXF 393 renal
UO-31 renal = test system: UO-31 renal
HCT-15 colon = test system: HCT-15 colon
KM12 colon = test system: KM12 colon
SK-OV-3 ovarian = test system: SK-OV-3 ovarian
MDA-MB-231 breast = test system: MDA-MB-231 breast
SF-295 CNS = test system: SF-295 CNS
786-0 renal = test system: 786-0 renal

Measured: TGI

C=C1C(=O)C2(C)OC2(C)C1C(=O)O (stereo unspecified)
> 100 µM: SR leukemia | UACC-62 melanoma | T-47D breast | EKVX NSCLC | HT29 colon | SF-268 CNS | CCRF-CEM leukemia | HS 578T breast | A549 NSCLC | SNB-75 CNS | ACHN renal | M14 melanoma | HCT-116 colon | NCI-H460 lung | SW-620 colon | UACC-257 melanoma | OVCAR-3 ovarian | HOP-92 NSCLC | NCI-H226 lung | OVCAR-4 ovarian | K-562 leukemia | CAKI-1 renal | NCI/ADR-RES ovarian | SK-MEL-5 melanoma | HL-60(TB) leukemia | HCC-2998 colon | COLO 205 colon | MCF7 breast | OVCAR-8 ovarian | MDA-N | TK-10 renal | BT-549 breast | SN12C renal | U251 CNS | LOX IMVI melanoma | NCI-H23 lung | DU-145 prostate | MDA-MB-435 | SK-MEL-2 melanoma | OVCAR-5 ovarian | IGROV1 ovarian | NCI-H522 lung | SK-MEL-28 melanoma | HOP-62 NSCLC | PC-3 prostate | SNB-19 CNS | RPMI-8226 leukemia | SF-539 CNS | RXF 393 renal | UO-31 renal | HCT-15 colon | KM12 colon | SK-OV-3 ovarian | MDA-MB-231 breast | SF-295 CNS | 786-0 renal

Source: PubChem BioAssay (NCI)
